Results published in PubChem BioAssay (NCI).
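Five compound concentrations were applied to cells in 96-well plates for 48 hours; endpoints were derived by simple linear interpolation of the resulting dose-response curve. At the GI50, growth is halved. At the TGI there is no net growth.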

What was measured:
Test in all cases: NCI-60 cell line screen, 48 h
[1] = test system: SK-MEL-28 melanoma
[2] = test system: MDA-MB-435
[3] = test system: 786-0 renal
[4] = test system: OVCAR-3 ovarian
[5] = test system: NCI/ADR-RES ovarian
[6] = test system: UO-31 renal
[7] = test system: ACHN renal
[8] = test system: HS 578T breast
[9] = test system: HL-60(TB) leukemia
[10] = test system: SNB-19 CNS
[11] = test system: TK-10 renal
[12] = test system: UACC-62 melanoma
[13] = test system: SF-268 CNS
[14] = test system: OVCAR-5 ovarian
[15] = test system: MDA-MB-231 breast
[16] = test system: DU-145 prostate
[17] = test system: OVCAR-8 ovarian
[18] = test system: T-47D breast
[19] = test system: SN12C renal
[20] = test system: LOX IMVI melanoma
[21] = test system: RPMI-8226 leukemia
[22] = test system: SK-MEL-2 melanoma
[23] = test system: MOLT-4 leukemia
[24] = test system: MCF7 breast
[25] = test system: A498 renal
[26] = test system: NCI-H522 lung
[27] = test system: SR leukemia
[28] = test system: EKVX NSCLC
[29] = test system: MALME-3M melanoma
[30] = test system: K-562 leukemia
[31] = test system: HOP-62 NSCLC
[32] = test system: SNB-75 CNS
[33] = test system: SF-295 CNS
[34] = test system: U251 CNS
[35] = test system: HT29 colon
[36] = test system: HOP-92 NSCLC
[37] = test system: OVCAR-4 ovarian
[38] = test system: HCT-15 colon
[39] = test system: COLO 205 colon
[40] = test system: M14 melanoma
[41] = test system: HCC-2998 colon
[42] = test system: HCT-116 colon
[43] = test system: SW-620 colon
[44] = test system: A549 NSCLC
[45] = test system: NCI-H460 lung
[46] = test system: KM12 colon
[47] = test system: NCI-H23 lung
[48] = test system: SF-539 CNS
[49] = test system: CCRF-CEM leukemia
[50] = test system: UACC-257 melanoma
[51] = test system: PC-3 prostate
[52] = test system: CAKI-1 renal
[53] = test system: BT-549 breast
[54] = test system: SK-OV-3 ovarian
[55] = test system: IGROV1 ovarian
[56] = test system: NCI-H226 lung
[57] = test system: SK-MEL-5 melanoma

Compound `CC(=O)Nc1c(Br)cc2c(c1Br)Cc1cc(Br)ccc1-2` has a GI50 [1] of 5.54 µM, a TGI [1] of 24.4 µM and a GI50 [2] of 4.15 µM. The TGI [2] was 21.1 µM, the GI50 [3] was 1.83 µM and the TGI [3] was 3.43 µM. It also gave a GI50 [4] of 8.42 µM, a TGI [4] of 21.1 µM and a GI50 [5] of 3.38 µM. It also gave a TGI [5] of 13.6 µM, a GI50 [6] of 0.581 µM and a TGI [6] of 13.7 µM. For the same compound, the GI50 [7] was 3.17 µM, the TGI [7] was 14.1 µM and the GI50 [8] was 1.96 µM. The TGI [8] was 5.73 µM, the GI50 [9] was 50.5 µM and the TGI [9] was > 100 µM. It also gave a GI50 [10] of 12.8 µM, a TGI [10] of 43 µM and a GI50 [11] of 12.4 µM. The TGI [11] was 26.1 µM, the GI50 [12] was 11.1 µM and the TGI [12] was > 100 µM. It also gave a GI50 [13] of 9.04 µM, a TGI [13] of 41 µM and a GI50 [14] of 12 µM. The TGI [14] was 27 µM, the GI50 [15] was 5.11 µM and the TGI [15] was 20.3 µM. For the same compound, the GI50 [16] was 6.44 µM, the TGI [16] was 21.4 µM and the GI50 [17] was 4.62 µM. For the same compound, the TGI [17] was 18.8 µM, the GI50 [18] was 3.34 µM and the TGI [18] was > 100 µM. The GI50 [19] was 4.67 µM, the TGI [19] was 18.9 µM and the GI50 [20] was 2.28 µM. For the same compound, the TGI [20] was 6.6 µM, the GI50 [21] was 50.5 µM and the TGI [21] was > 100 µM. The GI50 [22] was 12.6 µM, the TGI [22] was 32.7 µM and the GI50 [23] was > 100 µM. For the same compound, the TGI [23] was > 100 µM, the GI50 [24] was 9.29 µM and the TGI [24] was 96.1 µM. For the same compound, the GI50 [25] was 3.87 µM, the TGI [25] was 14.9 µM and the GI50 [26] was 27 µM. The TGI [26] was > 100 µM, the GI50 [27] was 6.87 µM and the TGI [27] was 31.1 µM. The GI50 [28] was 0.392 µM, the TGI [28] was 13.8 µM and the GI50 [29] was 7.26 µM. The TGI [29] was 53.4 µM, the GI50 [30] was 59.9 µM and the TGI [30] was > 100 µM. It also gave a GI50 [31] of 2.51 µM, a TGI [31] of 13.9 µM and a GI50 [32] of 1.24 µM. The TGI [32] was 3.31 µM, the GI50 [33] was 1.61 µM and the TGI [33] was 3.76 µM. It also gave a GI50 [34] of 3.32 µM, a TGI [34] of 12.4 µM and a GI50 [35] of 24.3 µM. For the same compound, the TGI [35] was > 100 µM, the GI50 [36] was 0.675 µM and the TGI [36] was 22.5 µM. The GI50 [37] was 2.47 µM, the TGI [37] was 6.6 µM and the GI50 [38] was 12.3 µM. The TGI [38] was > 100 µM, the GI50 [39] was 2.44 µM and the TGI [39] was 13.1 µM. It also gave a GI50 [40] of 3.7 µM, a TGI [40] of 18.3 µM and a GI50 [41] of 3.01 µM. The TGI [41] was 11.8 µM, the GI50 [42] was 2.76 µM and the TGI [42] was 10.9 µM. For the same compound, the GI50 [43] was 3.97 µM, the TGI [43] was 15.6 µM and the GI50 [44] was 3.94 µM. It also gave a TGI [44] of 14.8 µM, a GI50 [45] of 2.94 µM and a TGI [45] of 11.4 µM. It also gave a GI50 [46] of 11.6 µM, a TGI [46] of 55.1 µM and a GI50 [47] of 3.64 µM. For the same compound, the TGI [47] was 16 µM, the GI50 [48] was 13.6 µM and the TGI [48] was 33.2 µM. For the same compound, the GI50 [49] was 24.1 µM, the TGI [49] was > 100 µM and the GI50 [50] was 19.3 µM. For the same compound, the TGI [50] was > 100 µM, the GI50 [51] was 10.3 µM and the TGI [51] was 26.2 µM. The GI50 [52] was 1.98 µM, the TGI [52] was 10.7 µM and the GI50 [53] was 2.83 µM. For the same compound, the TGI [53] was 13.4 µM, the GI50 [54] was 4.22 µM and the TGI [54] was 17.2 µM.

With `COc1ccc2c(c1)O/C(=C\c1ncc([N+](=O)[O-])n1C)C2=O` the GI50 [1] was 0.371 µM, the TGI [1] was 2.55 µM and the GI50 [2] was 0.224 µM. For the same compound, the TGI [2] was 0.735 µM, the GI50 [3] was 0.805 µM and the TGI [3] was 3.89 µM. For the same compound, the GI50 [4] was 0.376 µM, the TGI [4] was 1.88 µM and the GI50 [5] was 0.584 µM. It also gave a TGI [5] of 9.51 µM, a GI50 [6] of 0.334 µM and a TGI [6] of 1.89 µM. For the same compound, the GI50 [7] was 0.158 µM, the TGI [7] was 0.495 µM and the GI50 [8] was 0.641 µM. For the same compound, the TGI [8] was > 21.9 µM, the GI50 [9] was 0.331 µM and the GI50 [10] was 1.18 µM. The TGI [10] was 6.26 µM, the GI50 [11] was 1.26 µM and the TGI [11] was > 20 µM. The GI50 [12] was 0.848 µM, the TGI [12] was 2.41 µM and the GI50 [55] was 0.558 µM. It also gave a TGI [55] of 9.86 µM, a GI50 [13] of 0.268 µM and a TGI [13] of 1.14 µM. It also gave a GI50 [14] of 1.87 µM, a TGI [14] of 6.39 µM and a GI50 [15] of 0.256 µM. For the same compound, the TGI [15] was 1.38 µM, the GI50 [16] was 0.285 µM and the TGI [16] was 0.794 µM. For the same compound, the GI50 [17] was 0.245 µM, the TGI [17] was 1.94 µM and the GI50 [18] was 5.46 µM. For the same compound, the TGI [18] was > 100 µM, the GI50 [19] was 0.472 µM and the TGI [19] was 2.09 µM. It also gave a GI50 [20] of 0.256 µM, a TGI [20] of 0.889 µM and a GI50 [21] of 1.34 µM. The TGI [21] was 5.75 µM, the GI50 [22] was 1.13 µM and the TGI [22] was 3.7 µM. It also gave a GI50 [23] of 0.0453 µM, a GI50 [24] of 0.495 µM and a TGI [24] of 9.37 µM. It also gave a GI50 [25] of 1.2 µM, a TGI [25] of 2.68 µM and a GI50 [26] of 0.266 µM. For the same compound, the TGI [26] was 0.927 µM, the GI50 [27] was 0.0294 µM and the GI50 [29] was 0.379 µM. For the same compound, the TGI [29] was 1.7 µM, the GI50 [30] was 0.414 µM and the GI50 [31] was 1.1 µM. It also gave a TGI [31] of 4.18 µM, a GI50 [32] of 0.974 µM and a TGI [32] of 3.78 µM. It also gave a GI50 [33] of 1.4 µM, a TGI [33] of 5.31 µM and a GI50 [56] of 1.43 µM. It also gave a TGI [56] of 4.27 µM, a GI50 [34] of 0.812 µM and a TGI [34] of 3.05 µM. For the same compound, the GI50 [35] was 0.291 µM, the TGI [35] was 1.39 µM and the GI50 [36] was 0.555 µM. The TGI [36] was 4.05 µM, the GI50 [37] was 2.52 µM and the TGI [37] was > 100 µM. It also gave a GI50 [39] of 0.363 µM, a TGI [39] of 2.24 µM and a GI50 [40] of 0.363 µM. It also gave a TGI [40] of 1.53 µM, a GI50 [41] of 0.899 µM and a TGI [41] of 4.19 µM. The GI50 [43] was 0.178 µM, the TGI [43] was 1.31 µM and the GI50 [57] was 0.246 µM. It also gave a TGI [57] of 0.837 µM, a GI50 [44] of 0.561 µM and a TGI [44] of 4.54 µM. It also gave a GI50 [45] of 0.201 µM, a TGI [45] of 0.619 µM and a GI50 [46] of 0.776 µM. For the same compound, the TGI [46] was 2.81 µM, the GI50 [47] was 0.257 µM and the TGI [47] was 1.32 µM. For the same compound, the GI50 [48] was 1.27 µM, the TGI [48] was 3.2 µM and the GI50 [49] was 0.264 µM. It also gave a TGI [49] of 2.02 µM, a GI50 [50] of 0.59 µM and a TGI [50] of 2.16 µM. The GI50 [51] was 2.24 µM, the TGI [51] was > 29.2 µM and the GI50 [52] was 0.202 µM. For the same compound, the TGI [52] was 0.544 µM, the GI50 [53] was 0.684 µM and the TGI [53] was 2.94 µM. The GI50 [54] was 1.56 µM and the TGI [54] was 6.86 µM.
